Format in all cases: in vitro ADME
One series deals with CYP2D6 (Homo sapiens, UniProt P10635). The series is described as follows: CYP inhibition CYP2D6 (CEREP). The settings on record: human, recombinant CYP2D6, human recombinant CYP, single concentration (typically 10 μM); read-out: CYP 2D6 (% inhibition of Control). As for the experimental part: (§1) All the assays were conducted at CEREP (CEREP, France and USA). Metabolic compound stability was tested in human (CEREP, Ref 607) and mouse (CEREP, Ref: 806) microsomes. Inhibition of human drug-metabolizing cytochromes P450 was tested on the five most commonly responsible enzymes of metabolism of xenobiotics, CYP1A2 (CEREP, Ref 389), CYP2C9 (CEREP, Ref 412), CYP2C19 (CEREP, Ref 390), CYP2D6 (CEREP, Ref 1338) and CYP3A4 (CEREP, Ref 391).
(§2) Briefly, CEREP's CYP inhibition assay uses traditional probe substrates, which are specific to individual CYP isoforms. 3-cyano-7-ethoxycoumarin is mainly catalyzed by CYP1A2 and CYP2C19, 3-[2-(N,N-diethyl-N-methylammonium)ethyl]-7-methoxy-4-methylcoumarin for CYP2C9 and CYP2D6 and finally, 7-benzyloxy-4-trifluoromethylcoumarin is pathway catalyzed predominantly by CYP3A4. The inhibition assays were performed with human recombinant CYP isoforms preparations. HPLC MS/MS methods are used to detect metabolites in these assays. Compounds were tested at single concentrations (typically 10 μM) and data were expressed as percent of control inhibition.

Another series addresses T1, CYP1A2 (Homo sapiens, UniProt P05177).
T1 sequence (P05177 1-516): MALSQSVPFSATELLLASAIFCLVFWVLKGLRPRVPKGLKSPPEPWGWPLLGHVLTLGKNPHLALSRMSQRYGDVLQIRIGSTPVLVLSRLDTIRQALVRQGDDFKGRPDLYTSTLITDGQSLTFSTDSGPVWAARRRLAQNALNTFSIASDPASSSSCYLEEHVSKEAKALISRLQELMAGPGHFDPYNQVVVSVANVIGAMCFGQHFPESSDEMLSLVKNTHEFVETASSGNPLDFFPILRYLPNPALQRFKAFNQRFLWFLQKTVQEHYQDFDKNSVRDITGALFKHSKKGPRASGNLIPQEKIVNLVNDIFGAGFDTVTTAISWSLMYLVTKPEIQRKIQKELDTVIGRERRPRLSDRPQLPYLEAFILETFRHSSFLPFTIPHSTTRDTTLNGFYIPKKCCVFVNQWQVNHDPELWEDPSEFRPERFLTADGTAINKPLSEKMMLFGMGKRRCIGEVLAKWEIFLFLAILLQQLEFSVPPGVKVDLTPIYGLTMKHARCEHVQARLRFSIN
The series is described as follows: CYP inhibition CYP1A2 (CEREP). Conditions: human, recombinant CYP1A2, probe 3-cyano-7-ethoxycoumarin, single concentration (typically 10 μM), read-out: CYP 1A2 (% inhibition of Control). How it is done:
as §1, §2

A short description of series [1]: Microsomal stability, mouse microsomes (CEREP). Conditions: 0.1 μM, 0.1 mg/mL microsomal protein. As for the experimental part: as §1
(§3) Briefly, the standard conditions for CEREP's stability assays include incubation of test compound at 0.1 μM with human or mouse microsomes for 60 minutes in duplicate. The protein concentration of microsomes is 0.1 mg/mL. The parent compound is detected by HPLC-MS/MS analysis. The quantity of the parent compound that remains intact upon 60 minutes of microsome exposure (% remaining) is calculated by comparing the peak area of the parent compound at 60 minutes of exposure to the time zero.

The target in the next series is CYP2C19 (Homo sapiens, UniProt P33261). The series is described as follows: CYP inhibition CYP2C19 (CEREP). The settings on record: human, recombinant CYP2C19, probe 3-cyano-7-ethoxycoumarin, single concentration (typically 10 μM), read-out: CYP 2C19 (% inhibition of Control). As for the experimental part: as §1, §2
In another series the target is CYP2C9 (Homo sapiens, UniProt P11712). The series is described as follows: CYP inhibition CYP2C9 (CEREP). The settings on record: human, recombinant CYP2C9, human recombinant CYP, single concentration (typically 10 μM); read-out: CYP 2C9 (% inhibition of Control). How it is done:
as §1, §2

Series [2] in a line: Microsomal stability, human microsomes (CEREP). The settings on record: 0.1 μM, 0.1 mg/mL microsomal protein. As for the experimental part: as §1, §3

CYP2D6, sequence (P10635 whole entry, canonical isoform): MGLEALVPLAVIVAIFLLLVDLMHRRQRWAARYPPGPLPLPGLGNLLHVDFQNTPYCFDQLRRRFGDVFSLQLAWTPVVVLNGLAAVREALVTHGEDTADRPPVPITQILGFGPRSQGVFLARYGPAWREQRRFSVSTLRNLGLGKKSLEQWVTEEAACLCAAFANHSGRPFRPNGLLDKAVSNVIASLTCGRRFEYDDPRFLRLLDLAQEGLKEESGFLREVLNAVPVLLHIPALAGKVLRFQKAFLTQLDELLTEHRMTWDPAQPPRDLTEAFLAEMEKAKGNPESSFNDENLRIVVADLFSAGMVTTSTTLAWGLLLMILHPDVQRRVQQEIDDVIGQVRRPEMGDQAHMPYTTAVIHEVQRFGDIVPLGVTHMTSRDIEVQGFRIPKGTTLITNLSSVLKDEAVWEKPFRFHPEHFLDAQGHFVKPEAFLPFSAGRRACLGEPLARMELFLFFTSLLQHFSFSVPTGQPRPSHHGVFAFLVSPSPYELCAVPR
CYP2C19, sequence (P33261 whole entry): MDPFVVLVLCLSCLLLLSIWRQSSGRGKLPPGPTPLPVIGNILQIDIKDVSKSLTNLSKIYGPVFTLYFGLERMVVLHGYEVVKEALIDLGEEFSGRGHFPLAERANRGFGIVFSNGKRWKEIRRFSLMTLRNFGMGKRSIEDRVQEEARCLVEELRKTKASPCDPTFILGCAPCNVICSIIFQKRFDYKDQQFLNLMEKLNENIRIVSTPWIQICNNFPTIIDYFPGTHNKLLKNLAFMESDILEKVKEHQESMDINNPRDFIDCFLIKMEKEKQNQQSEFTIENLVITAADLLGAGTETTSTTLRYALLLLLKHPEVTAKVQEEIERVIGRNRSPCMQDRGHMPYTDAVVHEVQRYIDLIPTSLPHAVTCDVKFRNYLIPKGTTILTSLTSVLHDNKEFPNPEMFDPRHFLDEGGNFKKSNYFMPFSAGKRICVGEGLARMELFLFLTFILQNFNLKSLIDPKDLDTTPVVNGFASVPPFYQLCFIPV
CYP2C9, sequence (P11712 whole entry): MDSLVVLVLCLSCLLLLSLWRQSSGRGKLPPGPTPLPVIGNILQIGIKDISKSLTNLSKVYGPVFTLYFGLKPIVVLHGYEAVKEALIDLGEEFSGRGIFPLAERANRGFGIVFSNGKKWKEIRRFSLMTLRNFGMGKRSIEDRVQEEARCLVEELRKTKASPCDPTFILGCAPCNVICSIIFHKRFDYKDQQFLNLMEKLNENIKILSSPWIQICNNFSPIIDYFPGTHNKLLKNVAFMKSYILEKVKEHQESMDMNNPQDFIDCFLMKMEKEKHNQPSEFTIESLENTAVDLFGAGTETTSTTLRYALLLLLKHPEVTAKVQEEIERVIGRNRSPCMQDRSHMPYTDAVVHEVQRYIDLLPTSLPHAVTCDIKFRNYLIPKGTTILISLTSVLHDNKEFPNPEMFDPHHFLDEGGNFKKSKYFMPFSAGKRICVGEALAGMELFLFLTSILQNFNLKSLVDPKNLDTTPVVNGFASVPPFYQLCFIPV

As for `O=C(O)CCc1c[nH]c2ccc(CC(=O)NC(c3ccccc3)c3ccc(Br)cc3N3CCCC3)cc12` (stereo not drawn) [Cpd. 50, 3-{5-[({[4-bromo-2-(pyrrolidin-1-yl)phenyl](phenyl)methyl}carbamoyl)methyl]-1H-indol-3-yl}propanoic acid], the inhibition at 10 µM was found to be 26.5% at CYP2D6, 0.9% on CYP1A2, 32.3% at CYP2C19 and 15.8% at CYP2C9. Also, in series [1], the “Mouse microsomes (% Cpd. remaining at 60 min)” value worked out at 38%. In series [2], the “Human microsomes (% Cpd. remaining at 60 min)” value came out at 92%.

Regarding `O=C(O)CCc1c[nH]c2ccc(CC(=O)NC(c3ccccc3)c3ccccc3N3CCCCC3)cc12` (stereo not drawn) [Cpd. 1, 3-{5-[({phenyl[2-(piperidin-1-yl)phenyl]methyl}carbamoyl)methyl]-1H-indol-3-yl}propanoic acid], the inhibition at 10 µM was 49% on CYP2D6, 1% on CYP1A2, 13% on CYP2C19 and 12% on CYP2C9. Besides, the “Mouse microsomes (% Cpd. remaining at 60 min)” value in series [1] is reported as 35%. In series [2], the “Human microsomes (% Cpd. remaining at 60 min)” value came to 54%.

As for `O=C(O)CCc1c[nH]c2ccc(CC(=O)NC(c3ccccc3)c3ccc(C(F)(F)F)cc3N3CCCC3)cc12` (stereo not drawn) [Cpd. 48, 3-{5-[({phenyl[2-(pyrrolidin-1-yl)-4-(trifluoromethyl)phenyl]methyl}carbamoyl)methyl]-1H-indol-3-yl}propanoic acid], the inhibition at 10 µM turned out to be 78.9% on CYP2D6, 10.7% on CYP1A2, 35% at CYP2C19 and 24.6% at CYP2C9. Moreover, the “Mouse microsomes (% Cpd. remaining at 60 min)” value in series [1] is reported as 53%. Besides, in series [2], the “Human microsomes (% Cpd. remaining at 60 min)” value is on record as 83%.

In the case of `CC(C)CC(NC(=O)Cc1ccc2[nH]cc(CCC(=O)O)c2c1)c1ccccc1N1CCCCC1` (stereo not drawn) [Cpd. 29, 3-{5-[({3-methyl-1-[2-(piperidin-1-yl)phenyl]butyl}carbamoyl)methyl]-1H-indol-3-yl}propanoic acid], the inhibition at 10 µM on CYP2D6 was 18.2%; at CYP1A2, -8.2%; on CYP2C19, 14.1%; at CYP2C9, 14.9%. Besides, in series [1], the “Mouse microsomes (% Cpd. remaining at 60 min)” value was found to be 20%. Moreover, the “Human microsomes (% Cpd. remaining at 60 min)” value in series [2] is listed as 23%.

Regarding `COc1ccc(C(NC(=O)Cc2ccc3[nH]cc(CCC(=O)O)c3c2)c2ccccc2)c(N2CCCCC2)c1` (stereo not drawn) [Cpd. 111, 3-{5-[({[4-methoxy-2-(piperidin-1-yl)phenyl](phenyl)methyl}carbamoyl)methyl]-1H-indol-3-yl}propanoic acid], the inhibition at 10 µM at CYP2D6 is 7.5%; on CYP1A2, -12.4%; on CYP2C19 it was 29.4%; on CYP2C9, 28.2%. The “Mouse microsomes (% Cpd. remaining at 60 min)” value in series [1] worked out at 37%. The “Human microsomes (% Cpd. remaining at 60 min)” value in series [2] is on record as 88%.

With `Cc1ccc(C(NC(=O)Cc2ccc3[nH]cc(CCC(=O)O)c3c2)c2ccccc2)c(N2CCCCC2)c1` (stereo not drawn) [Cpd. 77, 3-{5-[({[4-methyl-2-(piperidin-1-yl)phenyl](phenyl)methyl}carbamoyl)methyl]-1H-indol-3-yl}propanoic acid], the inhibition at 10 µM was 6.2% on CYP2D6, -0.9% on CYP1A2, 28.1% at CYP2C19 and 23.2% on CYP2C9. For the same molecule, the “Mouse microsomes (% Cpd. remaining at 60 min)” value in series [1] worked out at 31%. Besides, the “Human microsomes (% Cpd. remaining at 60 min)” value in series [2] was 88%.

Regarding `Cc1ccc(C(NC(=O)Cc2ccc3[nH]cc(CCC(=O)O)c3c2)c2ccccc2)c(N(C)C)c1` (stereo not drawn) [Cpd. 192, 3-{5-[({[2-(dimethylamino)-4-methylphenyl](phenyl)methyl}carbamoyl)methyl]-1H-indol-3-yl}propanoic acid], the inhibition at 10 µM was 4.3% at CYP2D6, -1.9% at CYP1A2, 31.2% at CYP2C19 and 28.6% at CYP2C9. The “Mouse microsomes (% Cpd. remaining at 60 min)” value in series [1] was 66%. The “Human microsomes (% Cpd. remaining at 60 min)” value in series [2] is 79%.

Regarding `Cc1ccc(C(NC(=O)Cc2ccc3[nH]cc(CCC(=O)O)c3c2)c2ccccc2)c(N2CCCC2)c1` (stereo not drawn) [Cpd. 5, 3-{5-[({[4-methyl-2-(pyrrolidin-1-yl)phenyl](phenyl)methyl}carbamoyl)methyl]-1H-indol-3-yl}propanoic acid], the inhibition at 10 µM on CYP2D6 amounted to 13.5%; at CYP1A2 it was 4.4%; at CYP2C19, 25%; on CYP2C9, 35.9%. For the same molecule, the “Mouse microsomes (% Cpd. remaining at 60 min)” value in series [1] amounted to 50%. In series [2], the “Human microsomes (% Cpd. remaining at 60 min)” value is 89%.

Take `O=C(O)CCCc1c[nH]c2ccc(CC(=O)NC(c3ccccc3)c3ccccc3N3CCCCC3)cc12` (stereo not drawn) [Cpd. 212, 4-{5-[({phenyl[2-(piperidin-1-yl)phenyl]methyl}carbamoyl)methyl]-1H-indol-3-yl}butanoic acid]: the inhibition at 10 µM on CYP2D6 is -6.3%; on CYP1A2 it was -5.4%; on CYP2C19, 32.2%; on CYP2C9 it was 29.5%. For the same molecule, the “Mouse microsomes (% Cpd. remaining at 60 min)” value in series [1] was 11%. In addition, the “Human microsomes (% Cpd. remaining at 60 min)” value in series [2] is 26%.

For `O=C(O)CCc1c[nH]c2ccc(CC(=O)NC(c3cccc(F)c3)c3ccccc3N3CCCCC3)cc12` (stereo not drawn) [Cpd. 3, 3-[5-({[(3-fluorophenyl)[2-(piperidin-1-yl)phenyl]methyl]carbamoyl}methyl)-1H-indol-3-yl]propanoic acid], the inhibition at 10 µM was -2% on CYP2D6, 2.9% at CYP1A2, 58.8% on CYP2C19 and 52.7% at CYP2C9. Also, in series [1], the “Mouse microsomes (% Cpd. remaining at 60 min)” value was 22%. Besides, in series [2], the “Human microsomes (% Cpd. remaining at 60 min)” value is 36%.

In general, inhibition refers to the drop in the measured response relative to a control, in per cent.
